Ends that are not written are not given here.
T1: CYBA-72Y (cytochrome b-245 alpha-polypeptide, p22phox; SNP rs4673, tyrosine at position 72) peptide on … (human)
T1 peptide: GQKYMTAVV

T2: CYBA-72Y peptide on HLA-B*15:01 (human)
T2 peptide: WGQKYMTAVV

B1: T-cell receptor cloned from miniMLLC 2D10 (TCR)
alpha TRAV10*01 TRAJ42*01 CDR3: CVVSRIYGGSQGNLIF
beta TRBV20-1*02 TRBJ2-3*01 CDR3: CSARGFSGVTDTQYF

How the values were obtained:
[1] = tested on: miniMLLC 2E8; assay: 48h-51Cr-release assay: synthetic CYBA peptides loaded on HLA-B*15:01-expressing L721.221-cells; type: cell-based; details: HLA-B*15:01-expressing L721.221-cells loaded with peptide at different concentrations; 2E8 effector cells; Figure 3B
Description: (§1) The present invention will now be further described in the following examples with reference to the accompanying figures and sequences, nevertheless, without being limited thereto. For the purposes of the present invention, all references as cited herein are incorporated by reference in their entireties. The Figures and Sequences show: • Figure 1: HLA restriction of miniMLLC 2E8. A) MZ529-EBV-B-cells (5x10^4 cells/well) were co-incubated in the presence of HLA-specific antibodies at concentrations mediating complete blocking of control-T lymphocytes with corresponding HLA restriction, with the miniMLLC 2E8 (1x10^4 cells/TU) in duplicate reactions in a 20h-IFN-gamma ELISpot assay. B) COS-7-cells (2x10^4 cells/well) were transfected with the HLA alleles of patient MZ529-AML and Buffy Coat donor 730 and tested in duplicate reactions for recognition by 2E8 (2x10^4 cells/well) in a 20h-IFN-gamma ELISpot assay. • Figure 2: Fragment analysis of the cDNA clone #428.67.4 for the identification of the peptide-coding region. 3'-fragments with a length difference of one codon (i.e. one amino acid) were generated from the cDNA clone #428.67.4 encoding the full-length CYBA-72Y, and were tested after co-transfection with HLA-B*15:01 into 293T cells (2x10^4 cells/well) in a 20h-IFN-gamma ELISpot assay for recognition by 2E8 (1.5x10^4 cells/well). […]

[2] = tested on: miniMLLC 2E8; assay: 20h-IFN-gamma ELISpot assay: recognition of synthetic CYBA peptides loaded on HLA-B*15:01-transfected 293T cells; type: cell-based; details: for recognition by T cells using an IFN-gamma-ELISpot assay: 293T cells transfected with HLA-B*15:01, loaded with peptide at different concentrations, 2E8 effector cells, Figure 3A; for peptide recognition by T lymphocytes against CYBA-72Y/B15: summary statement for all T lymphocytes (miniMLLCs), assay not given
Description: as §1, with “cells/well). MZ529-EBV-B cells (5x10^4 cells/well) served as positive control target. • Figure 3: Peptide recognition by the miniMLLC 2E8. (A) For a 20h-IFN-gamma ELISpot assay, 293T cells (2x10^4 cells/well) were transfected with HLA-B*15:01, were loaded with the indicated synthetic CYBA peptides at different concentrations, and were tested in duplicate reactions for recognition by 2E8 (2x10^4 cells/well). (B) For a […]-^51Cr-release assay, HLA-B*15:01-expressing L721.221-cells (2x10^4 cells/well) were loaded with the indicated synthetic CYBA peptides at different concentrations, and co-incubated in duplicate experiments with 2E8 (2x10^4 cells/well). • Figure 4: Recognition of non-malignant hematopoietic cells from HLA-B*15:01-positive BC donors by the CYBA-72Y/B15-specific miniMLLC 2E8. (A) From PBMCs of HLA-B*15:01-positive BC donors, who -with the exception of BC848 - carried at least one CYBA-242T allele (coding for CYBA-72Y), monocytes were purified using plastic adherence and differentiated to mature dendritic cells (mDCs) using cytokines. In duplicates 5x10^4 (BC087, BC848, BC967) or 3x10^4 (BC241, BC048) cells per well were tested for recognition by 2E8 (1.5x10^4 cells/well) in 20h-IFN-gamma ELISpot assays.” for “cells/well).”

[3] = target: T1, CYBA-72Y (cytochrome b-245 …); assay: cytokine release
[4] = target: T2, CYBA-72Y peptide on HLA-B*15:01; assay: cytokine release

| Molecule | recognition by T cells by means of a 51Cr-(chromium) release test [1] | recognition by T cells using an IFN-gamma-ELISpot assay [2] | peptide recognition by T lymphocytes against CYBA-72Y/B15 [2] | binding result [3] | binding result [4] |
| --- | --- | --- | --- | --- | --- |
| WGQKYMTAVV [WGQKYMTAVV] | recognized | recognized | – | – | – |
| GQKYMTAVV [GQKYMTAVV] | recognized at lower concentrations | recognized at lower concentrations | recognized by all T lymphocytes at the lowest concentration | – | – |
| GQKHMTAVV [homologous peptide from CYBA-72H, reference compound] | – | – | did not lead to any reactivity | – | – |
| B1 | – | – | – | recognises | recognises |
